Read-outs that look alike come from different tables or passages of the source.
Assays:
[1] = tested on: mice; conditions: intraperitoneally or orally; cited from earlier work
[2] = tested on: seizures; conditions: after 3 months of treatment; TSC and treatment-resistant epilepsy; cited from earlier work
[3] = cited from earlier work
[4] = tested on: Amygdala kindled rats (generalized and focal seizures); assay: Seizure suppression in amygdala kindled rats; type: in vivo, rat; conditions: IP; for suppression of focal seizures: suppressed = absence of EEG seizure activity lasting more than 4 seconds, FIGS. 1B, 2B; for suppression of generalized seizures: suppressed = absence of stage 3 or higher seizure (Racine scale), FIGS. 1A, 2A
Procedure: Preclinical studies were performed to study the effects of CBD or THC alone, or CBD in combination with THC, on seizures. Amygdala kindled rats were used as a model for generalized and focal seizures in these studies.
Kindling Procedure: An insulated bipolar electrode was implanted in the right basolateral amygdala of male Sprague Dawley rats (50-55 days old). Two weeks following implantation, the rats began daily kindling. The stimulation used for kindling was a 1 second train of biphasic 60 Hz square wave pulses at an intensity of 400 micro-amps, once per day. Both the focal afterdischarge (AD) and convulsive behavior were monitored for a minimum of 30 seconds after stimulation or until an observed seizure ended. Rats were stimulated once daily until ten stage 5 Racine scale seizures have been generated, after which they are considered fully kindled (typically 3-4 weeks).
Seizure Scoring: The focal seizures were defined by observing the afterdischarge (AD) recorded by electroencephalogram (EEG) via the implanted electrode. The focal AD can last as long as 1-2 minutes post stimulation. The focal AD is not necessarily accompanied by a secondary generalized motor seizure, especially early in the kindling process. Early behavioural signs may include the cessation of behaviour or blinking. After sufficient kindling has been induced, generalized motor events of seizure generalization began to occur. These events were rated using the Racine scale. The stages are as follows: Stage 1—facial clonus; Stage 2—head nodding; Stage 3—forelimb clonus; Stage 4—forelimb clonus and rearing on hindlimbs; Stage 5—loss of postural control (rearing and following over).
Seizure Threshold Testing: Two days after the 10th stage 5 seizure was recorded, the animal's seizure threshold was tested using ascending series technique. The process was started at an intensity of 20 micro-amps, which was increased by 20 micro-amps every two minutes until an AD was produced. The seizure threshold is defined as the current needed to produce the AD.
Stability Testing: After seizure thresholds were determined, the animals underwent stability testing to confirm the reliability of the threshold. The animals were stimulated at 25% above the determined threshold 3 times per week for 2 weeks. If seizures were consistently evoked at this level of stimulation, the rat was considered stable. […]
The effects of: a) CBD alone (0, 20, 40, 80, 160, 320 mg/kg; 10 subjects per dose); b) THC alone (0, 5, 10, 20, 40, 80 mg/kg; 10 subjects per dose); or c) CBD+THC (15:1) (CBD dose of 0, 20, 40, 80, 160, 320 mg/kg; 10 subjects per dose), were tested. […] A generalized seizure was considered to be suppressed if there was an absence of stage 3 or higher seizure, assessed using the Racine scale. […]

[5] = tested on: convulsive seizures; conditions: participants with Dravet Syndrome and drug-resistant seizures; cited from earlier work
[6] = tested on: seizures; conditions: cited from earlier work; for median reduction (seizures): at 12 weeks
[7] = Toxicity assessment of kindled rats before stimulation (Loscher ataxia scale); type: in vivo, rat; conditions: IP
Procedure: Before each round of drug testing stimulation, the rats were assessed for motor toxicity using the Loscher ataxia scale. This scale is used to determine motor impairment. The scale rankings are as follows: Stage 1—slight ataxia in hind legs, no decrease in abdominal muscle tone; Stage 2—more pronounced ataxia, slight decrease in abdominal muscle tone, flat body position; Stage 3—increased ataxia, continued decrease in abdominal muscle tone, more pronounced flat body posture, splayed hind legs, and crawling during forward motion; Stage 4—marked ataxia, loss of balance during forward motion, loss of abdominal muscle tone, flat body posture, splayed hind legs, and dragging during forward motion; Stage 5—very marked ataxia, frequent loss of balance during forward motion, loss of abdominal muscle tone.

[8] = Pharmacokinetics of orally administered CBD; type: in vivo, human; conditions: oral; 4 to 5 times the half-life
Text: The half-life of CBD, administered orally, may be about […]. A steady state is may be reached about 10 days after regular dosing begins (i.e., 4 to 5 times the half-life). As such, with a 4 week treatment period all patients may achieve a steady state of CBD blood concentration.

[9] = tested on: seizures; conditions: of the 7 participants who received CBD; temporal-lobe epilepsy; cited from earlier work
[10] = in vivo; cited from earlier work

| Compound | dose-response of therapeutic benefits (anti-inflammatory and anti-nociceptive) [1] | median percent change in total weekly seizure frequency [2] [%] | safety and tolerability in clinical trials ([3]; human, in vivo) | doses for which no significant adverse effects have been reported ([3]; p.o.) | suppression of focal seizures [4] | suppression of generalized seizures [4] | frequency of occurrence of convulsive seizures [5] | patients who became seizure free [5] | median reduction (seizures) ([6]; patients with DS) [%] | participants free of seizures in the last four weeks of treatment ([6]; patients with DS) [participants] | median reduction (seizures) ([6]; patients with LGS) [%] | participants free of seizures in the last four weeks of treatment ([6]; patients with LGS) [participant] | doses with no observed toxic effects [7] | time to steady state after regular dosing begins [8] | participants seizure free during treatment [9] | doses at which psychotoxicity was observed [7] | dose at which there may be psychotropic effects [10] [mg] |
| --- | --- | --- | --- | --- | --- | --- | --- | --- | --- | --- | --- | --- | --- | --- | --- | --- | --- |
| C=C(C)[C@@H]1CCC(C)=C[C@H]1c1c(O)cc(CCCCC)cc1O [CBD, cannabidiol] | bell-shaped dose-response | −48.8 | safe and well tolerated across a wide dosage range | up to 1500 mg/day | suppress some generalized and focal seizures | suppress some generalized and focal seizures | significantly reduced | about 5% | 49.8 | 4 | 36.8 | 1 | up to 320 mg/kg | about 10 days | 4 | – | – |
| CCCCCc1cc(O)c2c(c1)OC(C)(C)[C@@H]1CCC(C)=C[C@@H]21 [THC, Δ^9-tetrahydrocannabinol] | – | – | – | – | suppress some generalized and focal seizures | suppress some generalized and focal seizures | – | – | – | – | – | – | – | – | – | above 10 mg/kg | 10 |
